Measurements published in patent US20060069132A1, “Azolecarboxamide herbicides” (priority 2004, published 2006).
Read-outs that look alike come from different tables or passages of the source.

Assays:
johnsongrass = experiment: Test C pre-/postemergence herbicide test; assay type: in vivo, Sorghum halepense
Description: (§1) Seeds of plant species selected from bermudagrass (Cynodon dactylon (L.) Pers.), Surinam grass (Urochloa decumbens (Staph) R. D. Webster, previously named Brachiaria decumbens Stapf), cocklebur (Xanthium strumarium L.), corn (Zea mays L.), large crabgrass (Digitaria sanguinalis (L.) Scop.), woolly cupgrass (Eriochloa villosa (Thunb.) Kunth), giant foxtail (Setaria faberi Herrm.), goosegrass (Eleusine indica (L.) Gaertn.), johnsongrass (Sorghum halepense (L.) Pers.), kochia (Kochia scoparia (L.) Schrad.), lambsquarters (Chenopodium album L.), morningglory (Ipomoea coccinea L.), eastern black nightshade (Solanum ptycanthum Dunal), yellow nutsedge (Cyperus esculentus L.), pigweed (Amaranthus retroflexus L.), common ragweed (Ambrosia elatior L.), soybean (Glycine max (L.) Merr.), common (oilseed) sunflower (Helianthus annuus L.) and velvetleaf (Abutilon theophrasti Medik.) were planted and treated preemergence with test chemicals formulated in a non-phytotoxic solvent mixture which included a surfactant.
(§2) At the same time, plants selected from these crop and weed species and also winter barley (Hordeum vulgare L.), blackgrass (Alopecurus myosuroides Huds.), canarygrass (Phalaris minor Retz.), chickweed (Stellaria media (L.) Vill.), downy bromegrass (Bromus tectorum L.), green foxtail (Setaria viridis (L.) Beauv.), Italian ryegrass (Lolium multiflorum Lam.), wheat (Triticum aestivum L.), wild oat (Avenafatua L.) and windgrass (Apera spica-venti (L.) Beauv.) were treated with postemergence applications of some of the test chemicals formulated in the same manner. Plants ranged in height from 2 to 18 cm (1- to 4-leaf stage) for postemergence treatments. Plant species in the flooded paddy test consisted of rice (Oryza sativa), smallflower umbrella sedge (Cyperus difformis L.), ducksalad (Heteranthera limosa (Sw.) Willd.) and barnyardgrass (Echinochloa crus-galli (L.) Beauv.) grown to the 2-leaf stage for testing. Treated plants and controls were maintained in a greenhouse for 12 to 14 days, after which time all species were compared to controls and visually evaluated. Plant response ratings, summarized in Table C, are based on a scale of 0 to 100 where 0 is no effect and 100 is complete control. A dash (-) response means no test result.

[1] = test system: common (oilseed) sunflower; experiment: Test C pre-/postemergence herbicide test; assay type: in vivo, Helianthus annuus; conditions: for Sunflower plant response rating: Preemergence, 500 g ai/ha, scale 0 to 100, 0 no effect, 100 complete control
Description: as §1, §2

lambsquarters [2] = experiment: Test C pre-/postemergence herbicide test; assay type: in vivo, Chenopodium album
Description: as §1, §2

lambsquarters [3] = experiment: Test B pre-/postemergence herbicide test; assay type: in vivo, Chenopodium album; conditions: for pest or weed control at 125 g/ha / pest or weed control at 500 g/ha: Chenopodium album, 336 h
Procedure, shortened: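 Visual rating, 0 (no effect) to 100 (complete control), versus untreated controls after 13–15 d in greenhouse. Pre- and postemergence applications (postemergence plants 2–18 cm, 1–4 leaves); flooded paddy arm at 2-leaf stage. Compounds in non-phytotoxic solvent plus surfactant.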

morningglory = experiment: Test A pre-/postemergence herbicide test; assay type: in vivo, Ipomoea spp.
Procedure, shortened: (§3)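 Visual injury scores on a 0–100 scale (100 = complete control) taken about ten days post-treatment in greenhouse against untreated controls; dash means no result. Treatments: preemergence soil spray and postemergence spray to runoff on one- to two-leaf plants 2 to 10 cm tall, surfactant-containing formulation.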

large crabgrass = experiment: Test A pre-/postemergence herbicide test; assay type: in vivo, Digitaria sanguinalis
Procedure, shortened: as §3

giant foxtail = experiment: Test A pre-/postemergence herbicide test; assay type: in vivo, Setaria faberi
Procedure, shortened: as §3

[4] = test system: smallflower umbrella sedge; experiment: Test C flooded paddy test; assay type: in vivo, Cyperus difformis; conditions: for Plant response rating, Sedge, Umbrella: 500 g ai/ha, visual rating after 12 to 14 days
[5] = 250 g ai/ha, scale 0 to 100 (0 no effect, 100 complete control), visual, 12 to 14 days, preemergence
[6] = Postemergence, 500 g ai/ha, scale 0 to 100
[7] = Postemergence, 250 g ai/ha, scale 0 to 100, 0 no effect, 100 complete control
[8] = Preemergence, 500 g ai/ha, scale 0 to 100, 0 no effect, 100 complete control
[9] = postemergence, 62 g ai/ha, scale 0 to 100
[10] = 125 g ai/ha, scale 0 (no effect) to 100 (complete control), visual, 12 to 14 days, preemergence
[11] = Postemergence, 500 g ai/ha, visual rating after 13 to 15 days, scale 0 (no effect) to 100 (complete control)
[12] = postemergence, 125 g ai/ha, visual rating, scale 0 (no effect) to 100 (complete control)
[13] = preemergence, 125 g ai/ha, 0 to 100 scale, 0 is no effect, 100 is complete control
[14] = Postemergence, 500 g ai/ha, 0 to 100 scale, 0 no effect, 100 complete control
[15] = Postemergence, 2000 g ai/ha, 0 to 100 scale, 0 no effect, 100 complete control
[16] = Preemergence, 500 g ai/ha, visual rating, 0 to 100 scale (0 no effect, 100 complete control)
[17] = Preemergence, 2000 g ai/ha, 0 to 100 scale, 0 no effect, 100 complete control
[18] = 62 g ai/ha, preemergence, scale 0 to 100
[19] = 250 g ai/ha, scale 0-100, preemergence
[20] = 125 g ai/ha, scale 0 to 100 (0 no effect, 100 complete control)
[21] = 250 g ai/ha, scale of 0 to 100, 0 is no effect, 100 is complete control
[22] = scale 0 to 100 (0 no effect, 100 complete control)
[23] = 125 g ai/ha, 0 is no effect, 100 is complete control, preemergence
[24] = 125 g ai/ha, visual rating, scale 0 (no effect) to 100 (complete control), postemergence
[25] = Postemergence, 500 g ai/ha, scale 0 (no effect) to 100 (complete control)
[26] = 500 g ai/ha, scale 0 to 100 (0 no effect, 100 complete control), visual, 12 to 14 days, preemergence

C#CCn1nc(C(C)(C)C)cc1C(=O)Nc1cccc(C(=O)NCC)c1 [Compound 50]
Plant response rating (0 = no effect, 100 = complete control), Johnsongrass (johnsongrass; 62 g ai/ha, preemergence): 0
Plant response rating, Johnsongrass (johnsongrass; [5]): 0
Johnsongrass plant response rating (johnsongrass; [6]): 0
Plant response rating, Johnsongrass (johnsongrass; Postemergence, 125 g ai/ha, scale 0 to 100, 0 no effect, 100 complete control): 0
Plant response rating, Johnsongrass (johnsongrass; [7]): 0
Johnsongrass plant response rating (johnsongrass; [8]): 0
Plant response rating, Johnsongrass (johnsongrass; [9]): 0
Plant response rating (0 = no effect, 100 = complete control), Sunflower ([1]; 62 g ai/ha, preemergence): 0
Plant response rating, Sunflower [1, 10]: 0
Plant response rating, Sunflower [1, 5]: 0
Sunflower plant response rating [1]: 0
Plant response rating (0 = no effect, 100 = complete control), Lambsquarters (lambsquarters [2]; 62 g ai/ha, preemergence): 85
Plant response rating, Lambsquarters (lambsquarters [2]; [10]): 85
Plant response rating, Lambsquarters (lambsquarters [2]; [5]): 100
Lambsquarters plant response rating (lambsquarters [2]; [6]): 0
Plant response rating, Lambsquarters (lambsquarters [2]; [7]): 0
Lambsquarters plant response rating (lambsquarters [2]; [8]): 100
Plant response rating, Lambsquarters (lambsquarters [2]; [9]): 0
Plant response rating, Lambsquarters (lambsquarters [3]; [11]): 90
Lambsquarters plant response rating (lambsquarters [3]; Preemergence, 500 g ai/ha, scale 0 to 100): 100
Lambsquarters plant response rating (lambsquarters [3]; [12]): 80
Plant response rating, Lambsquarters (lambsquarters [3]; [13]): 90

CCCCOC(=O)c1cccc(NC(=O)c2cc(C(C)(C)C)nn2CC)c1 [Compound 86]
Johnsongrass plant response rating (johnsongrass; [6]): 30
Plant response rating, Johnsongrass (johnsongrass; [7]): 10
Plant response rating, Johnsongrass (johnsongrass; [9]): 10
Morningglory plant response rating (morningglory; [14]): 20
Plant response rating, Morningglory (morningglory; [15]): 35
Morningglory plant response rating (morningglory; [16]): 0
Morningglory plant response rating (morningglory; [17]): 15
Lambsquarters plant response rating (lambsquarters [2]; [6]): 100
Plant response rating, Lambsquarters (lambsquarters [2]; [7]): 100
Plant response rating, Lambsquarters (lambsquarters [2]; postemergence, 125 g ai/ha, scale 0 to 100): 100
Plant response rating, Lambsquarters (lambsquarters [2]; [9]): 100
Crabgrass, Large plant response rating (large crabgrass; [14]): 20
Plant response rating, Crabgrass, Large (large crabgrass; [15]): 25
Crabgrass, Large plant response rating (large crabgrass; [16]): 0
Crabgrass, Large plant response rating (large crabgrass; [17]): 0
Foxtail, Giant plant response rating (giant foxtail; [14]): 20
Plant response rating, Foxtail, Giant (giant foxtail; [15]): 20
Foxtail, Giant plant response rating (giant foxtail; [16]): 0
Foxtail, Giant plant response rating (giant foxtail; [17]): 0
Plant response rating, Lambsquarters (lambsquarters [3]; [11]): 90
Lambsquarters plant response rating (lambsquarters [3]; [12]): 80
Plant response rating, Lambsquarters (lambsquarters [3]; [13]): 0

CCc1nn(C(C)(C)C)cc1C(=O)Nc1cccc(C(=O)N(CC)CC)c1 [Compound 182, N-[3-[(diethylamino)carbonyl]phenyl]-1-(1,1-dimethylethyl)-3-ethyl-1H-pyrazole-4-carboxamide]
Johnsongrass plant response rating (johnsongrass; [8]): 75
pest or weed control at 62 g/ha (johnsongrass; Sorghum halepense, pre-emergence, 62 g ai/ha, preemergence, scale 0 to 100, read-out: Plant response rating, Johnsongrass): 0%
pest or weed control at 125 g/ha (johnsongrass; Sorghum halepense, pre-emergence, 125 g ai/ha, scale 0 (no effect) to 100 (complete control), visual, 12 to 14 days, read-out: Plant response rating, Johnsongrass): 35%
pest or weed control at 62 g/ha ([1]; Helianthus annuus, pre-emergence, 62 g ai/ha, preemergence, scale 0 to 100, read-out: Plant response rating, Sunflower): 0%
pest or weed control at 125 g/ha ([1]; Helianthus annuus, pre-emergence, 125 g ai/ha, scale 0 (no effect) to 100 (complete control), visual, 12 to 14 days, read-out: Plant response rating, Sunflower): 0%
Sunflower plant response rating [1]: 0
pest or weed control at 62 g/ha (lambsquarters [2]; Chenopodium album, pre-emergence, 62 g ai/ha, preemergence, scale 0 to 100, read-out: Plant response rating, Lambsquarters): 25%
pest or weed control at 125 g/ha (lambsquarters [2]; Chenopodium album, pre-emergence, 125 g ai/ha, scale 0 (no effect) to 100 (complete control), visual, 12 to 14 days, read-out: Plant response rating, Lambsquarters): 95%
Lambsquarters plant response rating (lambsquarters [2]; [8]): 95
pest or weed control at 125 g/ha (lambsquarters [3]; post-emergence, postemergence, 125 g ai/ha, visual rating, scale 0 (no effect) to 100 (complete control), read-out: Lambsquarters plant response rating): 60%
pest or weed control at 500 g/ha (lambsquarters [3]; post-emergence, postemergence, 500 g ai/ha, visual rating, scale 0 (no effect) to 100 (complete control), read-out: Lambsquarters plant response rating): 70%
pest or weed control at 125 g/ha (lambsquarters [3]; pre-emergence, 125 g ai/ha, 0 = no effect, 100 = complete control, read-out: Lambsquarters plant response rating (0 to 100 scale)): 20%
pest or weed control at 500 g/ha (lambsquarters [3]; pre-emergence, 500 g ai/ha, visual rating 0-100, 0 no effect, 100 complete control, read-out: Plant response rating, Lambsquarters): 100%

CCc1nn(C(C)(C)C)nc1C(=O)Nc1cccc(C(=O)N(C)CC)c1 [Compound 384]
Plant response rating, Johnsongrass (johnsongrass; [18]): 100
Plant response rating (0 = no effect, 100 = complete control), Johnsongrass (johnsongrass; 125 g ai/ha, preemergence): 100
Plant response rating, Johnsongrass (johnsongrass; [19]): 100
Plant response rating, Lambsquarters (lambsquarters [2]; [18]): 100
Plant response rating (0 = no effect, 100 = complete control), Lambsquarters (lambsquarters [2]; 125 g ai/ha, preemergence): 100
Plant response rating, Lambsquarters (lambsquarters [2]; [19]): 100
Sedge, Umbrella plant response rating ([4]; 62 g ai/ha, scale 0 to 100): 80
Sedge, Umbrella plant response rating [4, 20]: 80
Sedge, Umbrella plant response rating [4, 21]: 80
Plant response rating, Sedge, Umbrella [4, 22]: 80
Plant response rating (0 to 100 scale), Lambsquarters (lambsquarters [3]; [23]): 100
Lambsquarters plant response rating (lambsquarters [3]; [24]): 70
Lambsquarters plant response rating (lambsquarters [3]; [25]): 80

Cc1nn(C(C)(C)C)nc1C(=O)Nc1cccc(C(=O)N2CC=CC2)c1 [Compound 393]
Plant response rating, Johnsongrass (johnsongrass; [18]): 95
Plant response rating (0 = no effect, 100 = complete control), Johnsongrass (johnsongrass; 125 g ai/ha, preemergence): 100
Plant response rating, Johnsongrass (johnsongrass; [19]): 100
Plant response rating, Johnsongrass (johnsongrass; [26]): 100
Plant response rating, Lambsquarters (lambsquarters [2]; [18]): 100
Plant response rating (0 = no effect, 100 = complete control), Lambsquarters (lambsquarters [2]; 125 g ai/ha, preemergence): 100
Plant response rating, Lambsquarters (lambsquarters [2]; [19]): 100
Plant response rating, Lambsquarters (lambsquarters [2]; [26]): 100
Sedge, Umbrella plant response rating ([4]; 62 g ai/ha, scale 0 to 100): 70
Sedge, Umbrella plant response rating [4, 20]: 75
Sedge, Umbrella plant response rating [4, 21]: 80
Plant response rating, Sedge, Umbrella [4, 22]: 85
Plant response rating (0 to 100 scale), Lambsquarters (lambsquarters [3]; [23]): 90
Lambsquarters plant response rating (lambsquarters [3]; [24]): 60
Lambsquarters plant response rating (lambsquarters [3]; [25]): 80
